The supplement of paper PMC4862054

Key:
Conditions in all cases: incubation time: 72 h
MDA-MB-231 [1] = test: normalised response (% of control), CellTox Green; higher = less cell death (100 = DMSO, 0 = benzethonium chloride kill control)
Procedure, shortened: (§1)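 Values are normalised signals, each belonging to one concentration of the series. Breast cancer cells (20 µl suspension) were seeded into 384-well plates with compound at 5 concentrations in 10-fold steps over a compound-specific 10,000-fold range and incubated 72 h. Readouts were CellTox Green fluorescence (485/520 nm), then CellTiter-Glo luminescence after 10 min at room temperature, with each plate set to 0.1 % DMSO as 100 and a positive kill control as 0.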

CAL-120 [2] = test: as above
Procedure, shortened: as §1

MDA-MB-468 [3] = test: as above
Procedure, shortened: as §1

MDA-MB-436 [4] = test: as above
Procedure, shortened: as §1

CAL-148 [5] = test: as above
Procedure, shortened: as §1

MCF-10A [6] = test: as above
Procedure, shortened: as §1

BT-549 [7] = test: as above
Procedure, shortened: as §1

HCC1937 [8] = test: as above
Procedure, shortened: as §1

HCC1599 [9] = test: as above
Procedure, shortened: as §1

MDA-MB-453 [10] = test: as above
Procedure, shortened: as §1

CAL-51 [11] = test: as above
Procedure, shortened: as §1

DU-4475 [12] = test: as above
Procedure, shortened: as §1

BT-474 [13] = test: as above
Procedure, shortened: as §1

HDQ-P1 [14] = test: as above
Procedure, shortened: as §1

CAL-85-1 [15] = test: as above
Procedure, shortened: as §1

MFM-223 [16] = test: as above
Procedure, shortened: as §1

HCC1143 [17] = test: as above
Procedure, shortened: as §1

MDA-MB-231 [18] = test: normalised response (% of control), CellTiter-Glo; higher = more viable cells (100 = DMSO, 0 = benzethonium chloride kill control)
Procedure, shortened: as §1

CAL-120 [19] = test: as above
Procedure, shortened: as §1

MDA-MB-468 [20] = test: as above
Procedure, shortened: as §1

MDA-MB-436 [21] = test: as above
Procedure, shortened: as §1

CAL-148 [22] = test: as above
Procedure, shortened: as §1

MCF-10A [23] = test: as above
Procedure, shortened: as §1

BT-549 [24] = test: as above
Procedure, shortened: as §1

HCC1937 [25] = test: as above
Procedure, shortened: as §1

HCC1599 [26] = test: as above
Procedure, shortened: as §1

MDA-MB-453 [27] = test: as above
Procedure, shortened: as §1

CAL-51 [28] = test: as above
Procedure, shortened: as §1

SK-BR-3 = test: as above
Procedure, shortened: as §1

Hs578T [29] = test: as above
Procedure, shortened: as §1

DU-4475 [30] = test: as above
Procedure, shortened: as §1

BT-474 [31] = test: as above
Procedure, shortened: as §1

HDQ-P1 [32] = test: as above
Procedure, shortened: as §1

CAL-85-1 [33] = test: as above
Procedure, shortened: as §1

MFM-223 [34] = test: as above
Procedure, shortened: as §1

HCC1143 [35] = test: as above
Procedure, shortened: as §1

Hs578T [36] = test: normalised response (% of control), CellTox Green; higher = less cell death (100 = DMSO, 0 = benzethonium chloride kill control)
Procedure, shortened: as §1

| SMILES | normalised response (MDA-MB-231 [1]) [%] | normalised response (CAL-120 [2]) [%] | normalised response (MDA-MB-468 [3]) [%] | normalised response (MDA-MB-436 [4]) [%] | normalised response (CAL-148 [5]) [%] | normalised response (MCF-10A [6]) [%] | normalised response (BT-549 [7]) [%] | normalised response (HCC1937 [8]) [%] | normalised response (HCC1599 [9]) [%] | normalised response (MDA-MB-453 [10]) [%] | normalised response (CAL-51 [11]) [%] | normalised response (DU-4475 [12]) [%] | normalised response (BT-474 [13]) [%] | normalised response (HDQ-P1 [14]) [%] | normalised response (CAL-85-1 [15]) [%] | normalised response (MFM-223 [16]) [%] | normalised response (HCC1143 [17]) [%] | normalised response (MDA-MB-231 [18]) [%] | normalised response (CAL-120 [19]) [%] | normalised response (MDA-MB-468 [20]) [%] | normalised response (MDA-MB-436 [21]) [%] | normalised response (CAL-148 [22]) [%] | normalised response (MCF-10A [23]) [%] | normalised response (BT-549 [24]) [%] | normalised response (HCC1937 [25]) [%] | normalised response (HCC1599 [26]) [%] | normalised response (MDA-MB-453 [27]) [%] | normalised response (CAL-51 [28]) [%] | normalised response (SK-BR-3) [%] | normalised response (Hs578T [29]) [%] | normalised response (DU-4475 [30]) [%] | normalised response (BT-474 [31]) [%] | normalised response (HDQ-P1 [32]) [%] | normalised response (CAL-85-1 [33]) [%] | normalised response (MFM-223 [34]) [%] | normalised response (HCC1143 [35]) [%] | normalised response (Hs578T [36]) [%] |
| --- | --- | --- | --- | --- | --- | --- | --- | --- | --- | --- | --- | --- | --- | --- | --- | --- | --- | --- | --- | --- | --- | --- | --- | --- | --- | --- | --- | --- | --- | --- | --- | --- | --- | --- | --- | --- | --- |
| CN[C@@H](C)C(=O)N[C@H]1CN(C(=O)CC(C)C)CC[C@H]2CC[C@@H](C(=O)NC(c3ccccc3)c3ccccc3)N2C1=O [AT-406] (1000 nM) | -42.1 | 76.4 | 109 | 86.1 | 55.1 | 109 | 53.4 | 101 | 93.1 | 94.9 | 97.2 | 101 | 89.7 | 79.6 | 24 | 54.2 | 107 | 38.8 | 85.6 | 71.3 | 99.1 | 82.4 | 107 | 59.7 | 94 | 106 | 78.5 | 98.2 | 99.6 | 95.7 | 101 | 24.8 | 83.1 | 63.3 | 101 | 95.6 |  |
| CC1(COc2ccc3c(c2)ncn3-c2ccc3cccc(N4CCC(N)CC4)c3n2)COC1 [Crenolanib] (1000 nM) | 124 | 99.5 |  | 50.8 | 97.7 | 108 | 71.2 | 51.6 | 94.7 | 112 | 85.9 | 101 | 91.4 | 71 | 104 | 100 | 99 | 122 | 86.7 | 101 | 103 | 109 | 113 | 82.5 | 100 | 110 | 114 | 86.2 | 123 | 96.4 | 96.2 | 111 | 108 | 117 | 102 | 101 | 83.4 |
| CC(C)(C)c1nc(-c2cccc(NS(=O)(=O)c3c(F)cccc3F)c2F)c(-c2ccnc(N)n2)s1 [Dabrafenib] (250 nM) | 107 | -30.1 | 117 | 101 | 106 | 94.2 | 82.7 | 106 | 100 | 105 | 110 | 83 | 99.1 | 114 | 110 | 103 | 111 | 106 | 36.6 | 92 | 106 | 101 | 125 | 91 | 105 | 107 | 92.3 | 129 | 105 | 90.8 | 8.24 | 97.9 | 115 | 99.8 | 107 | 106 |  |
| Cc1nc(C(=O)NCC(=O)O)c(O)c2ccc(Oc3ccccc3)cc12 [FG-4592] (1000 nM) | 103 | 103 | 86 | 108 | 93 | 94.2 | 97.3 | 110 | 93.5 | 111 | 112 | 107 | 101 |  | 101 | 103 | 110 | 102 | 102 | 103 | 100 | 97.2 | 113 | 102 | 101 | 117 | 98.6 | 119 | 110 | 109 | 103 | 106 | 116 | 105 | 102 | 109 | 85.2 |
